Reference: patent publication US12070505B2, “Targeted peptide-drug conjugates” (priority 2021, dated 2024)
Where two headings read alike, the source gives them in different places.

Experiments:
[1] = tested on: MDA-231WT cells; assay: LC50 by CCK-8 assay, wild-type cells; format: cell-based; conditions: MDA-231WT (wild type), FIG. 10: after 72 h
Description: (§1) Dox-resistant Cell Lines. Acquired resistance to Dox was induced in wild-type triple-negative breast cancer cell line MDA-MB-231 (MDA-231WT) as described before (Aliabadi, H. M.; et al. J. Control. Release 172:219-228, 2013, which is incorporated herein by reference). Briefly, MDA-231WT cells were exposed to Dox at an initial concentration of 0.05 μg/mL for one week or three consecutive expansions (whichever came later). […] Resistance induction was confirmed via calculation of LC50 following a sigmoidal effect model explained elsewhere (Bousoik, E.; et al. Front. Oncol. 9:1070, 2019, which is incorporated herein by reference) and determination of P-glycoprotein (P-gp) expression.
(§2) The cytotoxicity of the peptide-Dox conjugate in resistant triple-negative breast cancer and uterine sarcoma cell lines (MDA-231R, MDA-231WT, and MES-SA/MX2) was evaluated by a Cell Counting 8 (CCK8) KIT. The peptide-Dox conjugate was added to the cells in triplicate with different concentrations (0-40 μM). Cells were incubated at 37° C. and 5% CO2 for 24 h. After this incubation period, 10 μL of CCK8 reagent was added to each well, and plates were incubated at the same conditions for 2 h. The absorbance of each well was determined at 450 nm using the SpectraMAX M5 microplate reader. After subtracting the signal from blank wells that contain medium without cells in the plate with CCK-8 solution added, the results were normalized to cells treated with normal saline (considered as 100%)
(§3) Efficiency in Dox-Resistant Cells. In order to compare the cytotoxic effect of free and peptide-conjugated Dox in Dox-resistant cells, MDA-231WT (as a Dox-sensitive cell line as control) and MDA-231R and MES-SA/MX2 cells as Dox-resistant cells were exposed to a wide range of Dox (or Dox-equivalent for the peptide-conjugated drug) concentrations (0.05-40 μM). Cells were seeded in 96-well plates with approximately 50% confluency and were incubated for 24 h in 37° C. and 5% CO2. […] The cell viability was determined after this incubation period using the CCK-8 assay, as explained above. […]

[2] = tested on: SK-OV-3 cells; assay: Cytotoxicity, MTS cell viability assay, SK-OV-3 (Example 1)
Description: (§4) In Vitro Cytotoxicity Assay of Peptide-Drug Conjugates. […] In brief, CCRF-CEM cells were seeded at 50,000 cells in 0.1 mL per well in 98-well plates. In the case of other cell lines, the cells were seeded at 5,000 cells (0.1 mL per well in 96-well plates). […] Dox (5 μM) was used as a positive control, while water and cell culture medium were used as negative controls. The compounds were dissolved in water; water was used as a negative control to normalize the data. After the incubation period, MTS reagent (20 μL) was added to each well. The incubation was continued for 2 h. Cell viability was then determined by determination of the fluorescence intensity at 490 nm using a SpectraMax M2 microplate spectrophotometer. The percentage of cell viability was then calculated using the following equation: [(OD value of cells treated with the compound)−(OD value of culture medium)]/[(OD value of control cells)−(OD value of culture medium)]×100% (FIGS. 6-9).

[3] = tested on: MES-SA/MX2 cells; assay: LC50 by CCK-8 assay, Dox-resistant MES-SA/MX2; format: cell-based; conditions: FIG. 10: after 72 h
Description: as §1
as §2, with “Cells were incubated at 37° C. and 5% CO2 for 24 h.” left out, “After subtracting the signal from blank wells that contain medium without cells in the plate with CCK-8 solution added, the results were normalized to cells treated with normal saline (considered as 100%)” left out
Efficiency in Dox-Resistant Cells. […] The cell viability was determined after this incubation period using the CCK-8 assay, as explained above. […]

[4] = tested on: gastric adenocarcinoma cells (AGS); assay: Cytotoxicity, MTS cell viability assay, AGS
Description: as §4

[5] = Stability of [R5K]W7A-Dox in fetal bovine serum (HPLC); format: in vitro ADME; conditions: 10% FBS, 37° C.
Description: Stability Studies. The stability of [R5K]W7A-Dox conjugate was evaluated using phosphate-buffered saline (PBS) and fetal bovine serum (FBS). FBS was purchased from Invitrogen and ATCC. FBS (20%) was incubated with [R5K]W7A-Dox (75 μL, 1 mM in water) at 37° C. followed by intermediate mixing. An aliquot of 75 μL of the mixture was taken out at different time intervals (5 min to 24 h) and diluted with water (75 μL). The mixture was analyzed by using analytical HPLC, detecting the wavelength of 490 nm. The area under the curve (AUC) was calculated and used to determine the percentage of released Dox and the remaining prodrug at a given time.

[6] = tested on: MDA-231R cells; assay: LC50 by CCK-8 assay, Dox-resistant MDA-231R; format: cell-based; conditions: MDA-231R (Dox-resistant); FIG. 10: after 72 h
Description: as §1, §2, §3

[7] = Cytotoxicity, MTS assay, normal kidney cells; conditions: pig, LLC-PK1 kidney cells
Description: (§5) In Vitro Cytotoxicity Assay of Peptide-Drug Conjugates. The cytotoxicity of the compounds was determined by using human leukemia cell line (CCRF-CEM), human ovarian adenocarcinoma cells (SKOV-3) cells, kidney cell line (LLC-PK1), gastric adenocarcinoma cells (AGS), and heart/myocardium cells (H9C2) to evaluate the toxicity of the generated peptides according to a previously reported procedure (Rahman, A.; et al. Proc. Am. Assoc. Cancer Res. 26:2295-2299, 1985, which is incorporated herein by reference). In brief, CCRF-CEM cells were seeded at 50,000 cells in 0.1 mL per well in 98-well plates. In the case of other cell lines, the cells were seeded at 5,000 cells (0.1 mL per well in 96-well plates). The cells were seeded in medium (RPMI-1640 containing FBS (10%)), 24 h prior to the experiment. The compounds at different concentrations (10-50 μM) were added to each well in triplicate and incubated for 24 and 72 h at 37° C. in a humidified atmosphere of 5% CO2. Dox (5 μM) was used as a positive control, while water and cell culture medium were used as negative controls. The compounds were dissolved in water; water was used as a negative control to normalize the data. After the incubation period, MTS reagent (20 μL) was added to each well. The incubation was continued for 2 h. Cell viability was then determined by determination of the fluorescence intensity at 490 nm using a SpectraMax M2 microplate spectrophotometer.

[8] = tested on: LLC-PK1 kidney cells; assay: Cytotoxicity, MTS assay, normal kidney cells
Description: as §5

[9] = Cytotoxicity, MTS assay, normal heart muscle cells (Example 1); conditions: rat, H9C2 heart/myocardium cells
Description: as §5

[10] = tested on: H9C2 cells; assay: as above
Description: as §5

[11] = tested on: uterine sarcoma cells (MES-SA/MX2)
Description: as §4

[12] = tested on: CCRF-CEM cells; assay: Cytotoxicity, MTS cell viability assay, CCRF-CEM
Description: as §4

COc1cccc2c1C(=O)c1c(O)c3c(c(O)c1C2=O)C[C@@](O)(C(=O)COC(=O)CCCC(=O)NCCC(=O)N[C@@H](Cc1c[nH]c2ccccc12)C(=O)N[C@@H](Cc1c[nH]c2ccccc12)C(=O)N[C@@H](Cc1c[nH]c2ccccc12)C(=O)N[C@@H](Cc1c[nH]c2ccccc12)C(=O)N[C@@H](Cc1c[nH]c2ccccc12)C(=O)N[C@@H](Cc1c[nH]c2ccccc12)C(=O)N[C@@H](Cc1c[nH]c2ccccc12)C(=O)NCCCC[C@@H]1NC(=O)[C@H](CCCNC(=N)N)NC(=O)[C@H](CCCNC(=N)N)NC(=O)[C@H](CCCNC(=N)N)NC(=O)[C@H](CCCNC(=N)N)NC(=O)[C@H](CCCNC(=N)N)NC1=O)C[C@@H]3O[C@H]1C[C@H](N)[C@H](O)[C@H](C)O1 [[R5K]W7A-Dox]
CC50 [1]: 560 nM
CC50 ([1]; listed as Conjugated Dox): 660 nM
Cell Viability (%) after 24 h ([2]; 5 μM): 87 ± 6%
Cell Viability (%) after 72 h ([2]; 5 μM): 71 ± 3%
reduction of cell survival/viability ([2]; 5 μM, 24 h): 19%
reduction of cell survival/viability ([2]; 5 μM, 72 h): 29%
Cell Viability (%) after 24 h ([2]; 10 μM): 87 ± 0%
Cell Viability (%) after 72 h ([2]; 10 μM): 61 ± 6%
reduction of cell viability ([2]; 10 μM, 72 h): 39%
Cell Viability (%) after 24 h ([2]; 25 μM): 76 ± 1%
Cell Viability (%) after 72 h ([2]; 25 μM): 52 ± 3%
reduction of cell viability / cytotoxicity ([2]; 25 μM, 72 h): 48%
CC50 [3]: 4300 nM
Cell Viability (%) after 24 h ([4]; 5 μM): 95 ± 0%
Cell Viability (%) after 72 h ([4]; 5 μM): 27 ± 6%
reduction of cell survival/viability ([4]; 5 μM, 72 h): 73%
Cell Viability (%) after 24 h ([4]; 10 μM): 104 ± 5%
Cell Viability (%) after 72 h ([4]; 10 μM): 13 ± 3%
Cell Viability (%) after 24 h ([4]; 25 μM): 71 ± 0%
Cell Viability (%) after 72 h ([4]; 25 μM): 10 ± 1%
Cell Viability (%) after 24 h ([4]; 50 μM): 32 ± 1%
Cell Viability (%) after 72 h ([4]; 50 μM): 11 ± 1%
cytotoxicity ([4]; 5 and 10 μM, 24 h): not significantly cytotoxic
reduction of cell viability ([4]; different concentrations, 72 h): 73-90%
Dox released ([5]; after 4 h): 55%
remaining at 24 h ([5]; bovine, 10% fetal bovine serum, after 24 h, read-out: peptide-Dox conjugate remained intact): 25%
CC50 [6]: 2300 nM
viability at 24 h, 5 µM [7]: 88%
viability at 24 h, 25 µM [7]: 42%
viability at 24 h, 50 µM [7]: 33 ± 1%
viability at 72 h, 5 µM [7]: 93 ± 6%
viability at 72 h, 10 µM [7]: 95 ± 3%
viability at 72 h, 25 µM [7]: 94 ± 1%
viability at 72 h, 50 µM [7]: 33 ± 1%
cytotoxicity to normal kidney cells ([8]; LLC-PK1, 5-10 μM): 5-7%
cytotoxicity ([8]; LLC-PK1, as high as 10 μM, 24 h and 72 h): not cytotoxic
Cell Viability (%) after 24 h ([8]; normal kidney LLC-PK1, 5 μM): 88 ± 0%
Cell Viability (%) after 72 h ([8]; normal kidney LLC-PK1, 5 μM): 93 ± 6%
Cell Viability (%) after 72 h ([8]; normal kidney LLC-PK1, 10 μM): 95 ± 3%
viability at 24 h, 5 µM [9]: 100 ± 2%
viability at 24 h, 10 µM [9]: 101%
viability at 24 h, 25 µM [9]: 68%
viability at 72 h, 10 µM [9]: 105 ± 3%
viability at 72 h, 25 µM [9]: 37 ± 1%
viability at 96 h, 5 µM [9]: 115 ± 1%
viability at 96 h, 10 µM [9]: 91%
viability at 96 h, 25 µM [9]: 39%
cytotoxicity to heart cells ([10]; H9C2, 5-10 μM): < 9%
toxicity ([10]; H9C2, 5-10 μM, 24 h, 72 h, and 96 h): did not show any significant toxicity
Cell Viability (%) after 24 h ([10]; normal heart H9C2, 5 μM): 100 ± 2%
Cell Viability (%) after 24 h ([10]; normal heart H9C2, 10 μM): 101 ± 0%
Cell Viability (%) after 72 h ([10]; normal heart H9C2, 10 μM): 105 ± 3%
Cell Viability (%) after 72 h ([11]; 5 μM, listed as [R5K]W7-Dox): 97 ± 2%
Cell Viability (%) after 72 h ([11]; 5 μM, listed as [R5K]W7Dox): 113 ± 1%
Cell Viability (%) after 72 h ([11]; 10 μM): 89 ± 2%
Cell Viability (%) after 72 h ([11]; 25 μM): 23 ± 4%
reduction of cell viability ([11]; 25 μM, 72 h): ~80%
cytotoxicity ([11]; 5 and 10 μM, 72 h): 0-10%
Cell Viability (%) after 24 h ([12]; 5 μM): 74 ± 0%
Cell Viability (%) after 72 h ([12]; 5 μM): 16 ± 6%
reduction of cell survival/viability ([12]; 5 μM, 72 h): 84%
Cell Viability (%) after 24 h ([12]; 10 μM): 68 ± 0%
Cell Viability (%) after 72 h ([12]; 10 μM): 13 ± 3%
Cell Viability (%) after 24 h ([12]; 25 μM): 36 ± 0%
Cell Viability (%) after 72 h ([12]; 25 μM): 15 ± 1%
reduction of cell viability ([12]; 25 μM, 24 h): 64%
cytotoxicity ([12]; at 5, 10, and 25 μM, 72 h): 84-87%
